Patent US8685924B2, “Preventives/remedies for stress urinary incontinence and method of screening the same” (Takeda Pharmaceutical Company Limited, priority 2004, dated 2014)

Key:
[1] = system: urethane-anesthetized female rats; assay: Antagonism of the leak point pressure increase by WAY-161503 / WAY-163909, abdominal wall-electrically stimulating method (Example 3); format: in vivo, rat; conditions: for leak point pressure after drug administration / leak point pressure increase / leak point pressure before drug administration: i.v., mean ± SEM; for leak point pressure before drug administration: baseline
Procedure: SD female rats (body weight 180-350 g) were anesthetized with urethane (Wako Pure Chemical Industries, Ltd.), and the spinal cord was transected at T8-9 level to eliminate the reflex voiding. In addition, the nerve to the iliococcygeus muscle/pubococcygeus muscle on the one side was transected. During operation, halothane (Takeda Pharmaceutical Company Limited) anesthesia was added when necessary. A catheter (PE-90, Clay Adams) was inserted into the bladder and secured with a ligature, and the incised part of each of the abdominal muscle and skin was closed with sutures. The abdominal skin near the diaphragm was incised at two left and right positions to newly expose the abdominal muscle. An Evans Blue dye (Merck) solution was injected into the bladder, and the bladder volume was adjusted to 0.2-0.3 ml. The bladder catheter was connected to a pressure transducer, and the signals of the transducer were sent to a computer via an amplifier (blood pressure amplification unit AP-641G; NIHON KOHDEN) and an analog-to-digital converter (BIOPAC; MP100), and recorded on a hard disc. The data were analyzed on a computer using software (BIOPAC; AcqKnowledge). The exposed abdominal muscle was electrostimulated using an electrostimulator (SEN-3301; NIHON KODEN) and an isolator (SS-202J; NIHON KODEN), and the presence or absence of incontinence from the meatus urethra was observed. The electrostimulation was applied at a voltage of 2.5-50 V, duration of 0.5 milisec, and frequency 50 Hz for 1 sec, thereby gradually increasing the intravesical pressure. The peak intravesical pressure during stimulation of the abdominal wall was measured and, of the trials with observed incontinence, the lowest peak intravesical pressure was defined as the leak point pressure. Serotonin 5-HT receptor agonist, WAY-161503 (5-HT2C receptor agonist), WAY-163909 (5-HT2C receptor agonist), DOI (5-HT2A/2B/2C receptor agonist), mCPP (5-HT2B/2C receptor partial agonist), eltoprazine (5-HT1A/1B/2C receptor partial agonist), 8-OH-DPAT (5-HT1A receptor agonist), sumatryptan (5-HT1B/1D receptor agonist) and BW723C86 (5-HT2B receptor agonist) were intravenously administered, and the leak point pressure was compared before and after the administration. DOI, mCPP and eltoprazine were dissolved in saline, and other drugs were dissolved in DMA/PEG400 (1:1), and they were intravenously administered at 1 ml/kg and 0.5 mg/kg, respectively. Depending on the experiment, RS-102221 (serotonin 5-HT2C receptor antagonist) or SB221284 (serotonin 5-HT2B/2C receptor antagonist) was intravenously administered 5 min before WAY-161503 or WAY-163909 administration, and an antagonistic effect against the WAY-161503 or WAY-163909-induced increment of the leak point pressure was examined. RS-102221 and SB221284 were both dissolved in DMA/PEG400 (1:1) and intravenously administered at 0.5 ml/kg.

[2] = system: urethane-anesthetized female rats; assay: Antagonism of the leak point pressure increase by WAY-161503 / WAY-163909, direct bladder compression method (Example 4); format: in vivo, rat; conditions: for leak point pressure after drug administration / leak point pressure increase / leak point pressure before drug administration: i.v., mean ± SEM; for leak point pressure before drug administration: baseline
Procedure: SD female rats (body weight 180-350 g) were anesthetized with urethane (Wako Pure Chemical Industries, Ltd.), and halothane (Takeda Pharmaceutical Company Limited) anesthesia was added when necessary during operation.
The spinal cord was transected at T8-9 level to eliminate the reflex voiding. The lower abdomen was incised in the median line, a catheter for intravesical pressure measurement (PE-90, Clay Adams) was inserted into the bladder and secured with a ligature, and the intravesical pressure was measured via a pressure transducer. Urine was emptized in advance by bilaterally pressing the bladder with two swabs, and a 0.1% Evans blue (Merck) solution (0.4 mL) was injected into the bladder. The bladder was gradually compressed bilaterally with two swabs, and the intravesical pressure upon saline leakage from the urethral orifice was measured and defined as a leak point pressure. The measurement of the leak point pressure was repeated, and the average value of the final five stable measures was taken as the value before drug administration. Thereafter, the drug was intravenously administered, the leak point pressure was measured again 20 min later, and the value after the drug administration was determined. DOI, mCPP and eltoprazine were dissolved in saline, and other drugs were dissolved in DMA/PEG400 (1:1), and intravenously administered at 1 ml/kg and 0.5 mg/kg, respectively. Depending on the experiment, RS-102221 or SB221284 (showing serotonin 5-HT2C receptor antagonist activity) was administered, 5 min later, WAY-161503 or WAY-163909 was administered, leak point pressure was measured 10 min later, and a competitive assay with the action of WAY-161503 or WAY-163909 was performed. RS-102221 and SB221284 were both dissolved in DMA/PEG400 (1:1), and intravenously administered at 0.5 ml/kg.

[3] = antagonist 0.1 mg/kg, i.v. 5 min before WAY-161503 0.3 mg/kg
[4] = antagonist 0.3 mg/kg, i.v. 5 min before WAY-161503 0.3 mg/kg
[5] = antagonist 0.1 mg/kg, i.v. 5 min before WAY-163909 0.3 mg/kg
[6] = antagonist 0.3 mg/kg, i.v. 5 min before WAY-163909 0.3 mg/kg
[7] = antagonist alone 0.3 mg/kg, agonist: solvent, WAY-163909 series
[8] = intravenous, against WAY-163909
[9] = antagonist 1 mg/kg, i.v. 5 min before WAY-161503 0.3 mg/kg
[10] = antagonist 3 mg/kg, i.v. 5 min before WAY-161503 0.3 mg/kg
[11] = antagonist 3 mg/kg, i.v. 5 min before WAY-163909 0.3 mg/kg
[12] = antagonist 1 mg/kg, i.v. + WAY-161503 0.3 mg/kg
[13] = antagonist 3 mg/kg, i.v. + WAY-161503 0.3 mg/kg
[14] = antagonist 3 mg/kg, i.v. + WAY-163909 0.3 mg/kg
[15] = antagonist 1 mg/kg, i.v. 5 min before WAY-163909 0.3 mg/kg
[16] = antagonist alone 3 mg/kg, agonist: solvent, WAY-161503 series
[17] = antagonist alone 3 mg/kg, agonist: solvent, WAY-163909 series

SMILES: CSc1cc2c(cc1C(F)(F)F)N(C(=O)Nc1cccnc1)CC2 [SB221284]
- suppression of the leak point pressure increasing action ([1]; against WAY-161503): suppressed the leak point pressure increasing action by WAY-161503 significantly
- leak point pressure after drug administration [1, 3]: 66.9 ± 9.8 cmH2O
- leak point pressure increase [1, 3]: 13.6 ± 3.8 cmH2O
- leak point pressure after drug administration [1, 4]: 46.8 ± 6.2 cmH2O
- leak point pressure increase [1, 4]: −3.6 ± 1.4 cmH2O
- leak point pressure before drug administration ([1]; antagonist 0.1 mg/kg, i.v. + WAY-161503 0.3 mg/kg): 53.3 ± 7.0 cmH2O
- leak point pressure before drug administration ([1]; antagonist 0.3 mg/kg, i.v. + WAY-161503 0.3 mg/kg): 50.4 ± 6.3 cmH2O
- leak point pressure after drug administration [2, 5]: 59.4 ± 3.9 cmH2O
- leak point pressure increase [2, 5]: 6.2 ± 3.1 cmH2O
- leak point pressure after drug administration [2, 6]: 60.7 ± 3.9 cmH2O
- leak point pressure increase [2, 6]: 0.4 ± 1.7 cmH2O
- leak point pressure after drug administration [2, 7]: 63.0 ± 2.0 cmH2O
- leak point pressure increase [2, 7]: −1.2 ± 2.2 cmH2O
- leak point pressure before drug administration ([2]; antagonist 0.1 mg/kg, i.v. + WAY-163909 0.3 mg/kg): 53.2 ± 3.4 cmH2O
- leak point pressure before drug administration ([2]; antagonist 0.3 mg/kg, i.v. + WAY-163909 0.3 mg/kg): 60.3 ± 4.0 cmH2O
- leak point pressure before drug administration [2, 7]: 64.2 ± 1.2 cmH2O
- suppression of the leak point pressure increase [2, 8]: significantly suppressed an increase in the leak point pressure by WAY-163909

SMILES: COc1cc(OC)c(C(=O)CCCCN2CCC3(CC2)NC(=O)NC3=O)cc1NS(=O)(=O)c1ccc(C(F)(F)F)cc1 [RS102221]
- leak point pressure after drug administration [1, 9]: 68.5 ± 6.1 cmH2O
- leak point pressure increase [1, 9]: 20.2 ± 4.1 cmH2O
- leak point pressure after drug administration [1, 10]: 50.0 ± 6.3 cmH2O
- leak point pressure increase [1, 10]: 9.7 ± 2.1 cmH2O
- leak point pressure after drug administration [1, 11]: 53.0 ± 7.0 cmH2O
- leak point pressure increase [1, 11]: 6.5 ± 2.4 cmH2O
- leak point pressure before drug administration [1, 12]: 48.3 ± 7.5 cmH2O
- leak point pressure before drug administration [1, 13]: 40.3 ± 5.5 cmH2O
- leak point pressure before drug administration [1, 14]: 46.5 ± 5.9 cmH2O
- dose at which suppression of the leak point pressure increase was significant ([1]; intravenous, against WAY-161503 (0.3 mg/kg, i.v.) or WAY-163909 (0.3 mg/kg, i.v.)): 3 mg/kg
- leak point pressure after drug administration [2, 9]: 67.5 ± 5.4 cmH2O
- leak point pressure increase [2, 9]: 12.8 ± 1.9 cmH2O
- leak point pressure after drug administration [2, 15]: 74.1 ± 3.4 cmH2O
- leak point pressure increase [2, 15]: 11.6 ± 2.4 cmH2O
- leak point pressure after drug administration [2, 10]: 70.5 ± 1.8 cmH2O
- leak point pressure increase [2, 10]: 9.8 ± 2.7 cmH2O
- leak point pressure after drug administration [2, 11]: 70.9 ± 3.0 cmH2O
- leak point pressure increase [2, 11]: 7.4 ± 1.4 cmH2O
- leak point pressure after drug administration [2, 16]: 60.7 ± 6.2 cmH2O
- leak point pressure increase [2, 16]: 3.8 ± 1.9 cmH2O
- leak point pressure after drug administration [2, 17]: 59.2 ± 6.6 cmH2O
- leak point pressure increase [2, 17]: −0.2 ± 2.1 cmH2O
- leak point pressure before drug administration [2, 12]: 54.7 ± 6.1 cmH2O
- leak point pressure before drug administration ([2]; antagonist 1 mg/kg, i.v. + WAY-163909 0.3 mg/kg): 62.5 ± 3.1 cmH2O
- leak point pressure before drug administration [2, 13]: 60.7 ± 3.3 cmH2O
- leak point pressure before drug administration [2, 14]: 63.6 ± 3.3 cmH2O
- leak point pressure before drug administration [2, 16]: 56.8 ± 5.5 cmH2O
- leak point pressure before drug administration [2, 17]: 59.4 ± 7.0 cmH2O
- dose at which suppression of the leak point pressure increase was significant ([2]; intravenous, against WAY-161503 (0.3 mg/kg, i.v.)): 3 mg/kg
- dose at which suppression of the leak point pressure increase was significant [2, 8]: 3 mg/kg
